Several values for one entry are separate records, joined by “and”; a condition that tells them apart may be missing. Equal entries are not always repeated. Entries after “also recorded” stand apart in the source; their conditions may differ. Where two headings read alike, the source gives them in different places. Where a SMILES comes first, the peptide text is derived from it. [ ]: non-standard residue; d: D form. dNle = CCCC[C@@H](N)C(=O)O; Ahx = NCCCCCC(=O)O
Legend:
Microsomal metabolism = format: in vitro ADME, rat; settings: over 90 min; data not shown
Blood stability studies = settings: heparinized rat blood, 37° C.; single phase exponential decay
Protocol: (§1) At the end of each incubation, 20 μL of Nle^1-AngIV (100 μg/mL) was added to each sample as an internal standard. […] All samples were centrifuged at 4° C., 2300×g for 5 min and the supernatants were transferred to clean tubes.
(§2) Samples were then separated by HPLC on an Econosphere C18 (100 mm×2.1 mm) from Grace Davison Discovery Science (Deerfield, Ill.). […] The mobile phase consisted of HPLC water (Sigma St. Louis, Mo.) with 0.1% trifluoroacetic or 0.1% heptafluorobutyric acid (Sigma St. Louis, Mo.) and varying concentrations of ACN or methanol. Separation was carried out using a gradient method, at ambient temperature and a flow rate of 0.3 mL/min (see below for more information). Stability half-lives were determined assuming a normal single phase exponential decay using Prism 5 graphical/statistical program (GraphPad, San Diego, Calif.).

MDCK cells [1] = test: HGF-dependent MDCK cell proliferation (MTT); format: cell-based, canine; settings: analogs at 10^−10M, HGF 10 ng/ml, 4 days
Protocol: 5000 MDCK cells were seeded into the wells of a 96 well plates in 10% FBS DMEM. To induce cellular quiescence, the cells were serum deprived for 24 h prior to initiating the treatments. Following serum starvation, 10 ng/ml HGF alone and with various concentrations of 6-AH analogs or PBS vehicle were added to the media. The cells were allowed to grow under these conditions for 4 days with a daily addition of 6-AH analogs. On the fourth day, 1 mg/ml of […] (MTT, Sigma-Aldrich) prepared in PBS was added to the cells and incubated for 4 h. Dimethyl sulfoxide diluted in a 0.01M glycine buffer was added to solubilize the cell membranes and the absorbance of reduced MTT in the buffer was quantitated at 590 nm using a plate reader (Biotek Synergy 2, Winooski, Vt.). HGF-dependent proliferation was determined by subtracting the basal proliferation (in the absence of HGF) from total proliferation rates in groups containing HGF.

Met = test: Inhibition of HGF-dependent Met phosphorylation in HEK293 cells; format: cell-based, human; settings: 10 min with HGF+/− analog
Protocol: HEK293 cells were seeded in 6 well tissue culture plates and grown to 95% confluency in DMEM containing 10% FBS. The cells were serum deprived for 24 h prior to the treatment to reduce the basal levels of phospho-Met. Following serum starvation, cocktails comprised of vehicle and HGF with/without 6-AH analogs were prepared and pre-incubated for 30 min at room temperature. The cocktail was then added to the cells for 10 min to stimulate the Met receptor and downstream proteins. Cells were harvested using RIPA lysis buffer (Millipore; Billerica, Mass.) fortified with phosphatase inhibitor cocktails 1 and 2 (Sigma-Aldrich; St. Louis, Mo.). The lysate was clarified by centrifugation at 15,000 nx g for 15 min, protein concentrations were determined using the BCA total protein assay (Pierce), and then appropriate volumes of the lysates were diluted with 2× reducing Laemmli buffer and heated for ten min at 95° C. Samples containing identical amounts of protein were resolved using SDS-PAGE (Criterion, BioRad Laboratories), transferred to nitrocellulose, and blocked in Tris-buffered saline (TBS) containing 5% milk for 1 h at room temperature. The phospho-Met antibody were added to the blocking buffer at a final concentration of 1:1000 and incubated at 4° C. overnight with gentle agitation. The membranes were then washed several times with water and TBS ([…], 0.05% Tween-20), a 1:5000 dilution of horseradish-peroxidase conjugated goat anti-rabbit antiserum was added, and the membranes further incubated for 1 h at room temperature. Proteins were visualized using the Supersignal West Pico Chemiluminescent Substrate system (Pierce, Fenton, Mo.) and molecular weights determined by comparison to protein ladders (BenchMark, Invitrogen, and Kaleidoscope, BioRad). Film images were digitized and analyzed using a UVP phosphoimager.

MDCK cells [2] = test: Inhibition of HGF-dependent scattering in MDCK cells; format: cell-based, canine; settings: HGF 20 ng/ml, 48 h
Protocol: MDCK cells were grown to 100% confluency on the coverslips in six-well plates and washed twice with PBS. The confluent coverslips were then aseptically transferred to new six well plates containing 900 μl serum free DMEM. Norleual, Hinge peptide, and/or HGF (20 ng/ml) were added to appropriate wells. Control wells received PBS vehicle. Plates were incubated at 37° C. with 5% CO2 for 48 h. Media was removed and cells were fixed with methanol. Cells were stained with Diff-Quik Wright-Giemsa (Dade-Behring, Newark, Del.) and digital images were taken. Coverslips were removed with forceps and more digital images were captured. Pixel quantification of images was achieved using Image J and statistics were performed using Prism 5 and InStat v.3.05 (GraphPad; San Diego, Calif.).

human HGF [3] = target: T1, human HGF (Homo sapiens, UniProt P14210); test: HGF dimerization; format: biochemical; settings: analogs at 10^−10 M, heparin, 30 minute incubation
T1 construct: purchased R&D Systems (Minneapolis, Minn.)
Protocol: HGF dimerization was assessed using PAGE followed by silver staining (Kawas et al., 2011). Human HGF at a concentration of 0.08 ng/μl with or without 6-AH analogs was incubated with heparin at a final concentration of 5 μg/ml. Loading buffer was then added to each sample and the mixture separated by native PAGE using gradient Criterion XT precast gels (4-12% Bis-Tris; Biorad Laboratories, Hercules, Calif.). Next the gel was silver stained for the detection of the HGF monomers and dimers. Bands were quantitated from digital images using a UVP phosphoimager (Upland, Calif.).

human HGF [4] = target: T1, human HGF; test: HGF binding, competition with 3H-Hinge; settings: 1.25 ng HGF, 40 min at 37° C.; N=9
Protocol: The binding of 6-AH analogs to HGF was assessed by competition using a soluble binding assay. 250 μl of PBS containing human HGF (1.25 ng) were incubated with ^3H-Hinge, the central dimerization domain of HGF, in the presence of varying concentrations of 6-AH analogs between 10^−13 M to 10^−7M (half-log dilutions) for 40 min at 37° C. The incubates were then spun through Bio-Gel P6 spin columns (400 μl packed volume) for 1 min to separate free and bound ^3H-Hinge and the eluent was collected. Five milliliters of scintillation fluid was added to the eluent, which contained the HGF bound ^3H-Hinge, and was then counted using scintillation counter. Total disintegrations per minute of bound ^3H-Hinge were calculated based on machine counting efficiency. The Ki values for the binding of the peptides were determined using the Prism 5. Competition binding curves were performed in triplicate.

[5] = rat
Protocol: Male Sprague-Dawley rats (250+ g) were allowed food (Harlan Teklad rodent diet) and water ad libitum in our AAALAC certified animal facility. Rats were housed in temperature-controlled rooms with a 12 h light/dark cycle. The right jugular veins of the rats were catheterized with sterile polyurethane Hydrocoat™ catheters (Access Technologies, Skokie, Ill., USA) under ketamine (Fort Dodge Animal Health, Fort Dodge, Iowa, USA) and isoflurane (Vet One™, MWI, Meridian, Id., USA) anesthesia. The catheters were exteriorized through the dorsal skin. The catheters were flushed with heparinized saline before and after blood sample collection and filled with heparin-glycerol locking solution (6 mL glycerol, 3 mL saline, 0.5 mL gentamycin (100 mg/mL), 0.5 mL heparin (10,000 u/mL)) when not used for more than 8 h. The animals were allowed to recover from surgery for several days before use in any experiment, and were fasted overnight prior to the pharmacokinetic experiment.
Catheterized rats were placed in metabolic cages prior to the start of the study and time zero blood samples were collected. […] After dosing, blood samples were collected as follows (times and blood volumes collected are listed in chronological order):
After each blood sample was taken, the catheter was flushed with saline solution and a volume of saline equal to the volume of blood taken was injected (to maintain total blood volume).
Upon collection into polypropylene microfuge tubes without heparin, blood samples were immediately centrifuged at 4° C., 2300×g for 5 min to remove any cells and clots and the serum transferred into clean microcentrifuge tubes. A volume of internal standard (Nle^1-AngIV, 100 μg/mL) equal to 0.1 times the sample serum volume was added. A volume of ice-cold acetonitrile equal to four times the sample serum volume was then added and the sample vortexed vigorously for 30 s. The supernatants were transferred to clean tubes, then held on ice until the end of the experiment, and stored at 4° C. afterward until further processing.
All samples were evaporated to dryness in a Savant SpeedVac® concentrator. […] The samples were then transferred to HPLC autosampler vials and 100 μl was injected into the HPLC system a total of 2 times (2 HPLC/MS analyses) for each sample.
Data collection and integration were achieved using Shimadzu LCMS solution software. The analytical column used was an Econosphere C18 (100 mm×2.1 mm) from Grace Davison Discovery Science (Deerfield, Ill., USA). The mobile phase consisted of HPLC grade methanol and water with 0.1% trifluoroacetic acid. Separation was carried out using a non-isocratic method (40%-50% methanol over 10 min) at ambient temperature and a flow rate of 0.3 mL/min. […] Data were normalized based on the recovery of the internal standard.
Pharmacokinetic analysis was performed using data from individual rats. The mean and standard deviation (SD) were calculated for the group.

[6] = rat; remark: listed apart in the source
Protocol: as §1, §2

[7] = system: B16-F10 murine melanoma cells; test: B16-F10 melanoma lung colony formation; format: in vivo, mouse; settings: C57BL/6 mice, daily IP 10 μg/kg/day or 100 μg/kg/day, 14 days
Protocol: Six to eight month old C57BL/6 mice were injected with 400,000 B16-F10 cells in 200 μl PBS by tail vein injection and subsequently received daily intraperitoneal injections of either D-Nle-X-Cys-NH—(CH2)5—CONH2 ([…]) or a PBS vehicle control. Two weeks later, mice were anesthetized and lungs were perfused with PBS and removed. Photos were taken and lungs were solubilized in 1% Triton x-100, 20 mM Tris, 0.15 M NaCl, 2 mM EDTA, and 0.02% sodium azide. Samples were disrupted by sonication (Mixonix, Farmingdale, N.Y.) and spun. The supernatant was transferred to a 96 well plate and melanin absorbance at 410 nm was measured using a plate reader.

T1 sequence (P14210 32-728): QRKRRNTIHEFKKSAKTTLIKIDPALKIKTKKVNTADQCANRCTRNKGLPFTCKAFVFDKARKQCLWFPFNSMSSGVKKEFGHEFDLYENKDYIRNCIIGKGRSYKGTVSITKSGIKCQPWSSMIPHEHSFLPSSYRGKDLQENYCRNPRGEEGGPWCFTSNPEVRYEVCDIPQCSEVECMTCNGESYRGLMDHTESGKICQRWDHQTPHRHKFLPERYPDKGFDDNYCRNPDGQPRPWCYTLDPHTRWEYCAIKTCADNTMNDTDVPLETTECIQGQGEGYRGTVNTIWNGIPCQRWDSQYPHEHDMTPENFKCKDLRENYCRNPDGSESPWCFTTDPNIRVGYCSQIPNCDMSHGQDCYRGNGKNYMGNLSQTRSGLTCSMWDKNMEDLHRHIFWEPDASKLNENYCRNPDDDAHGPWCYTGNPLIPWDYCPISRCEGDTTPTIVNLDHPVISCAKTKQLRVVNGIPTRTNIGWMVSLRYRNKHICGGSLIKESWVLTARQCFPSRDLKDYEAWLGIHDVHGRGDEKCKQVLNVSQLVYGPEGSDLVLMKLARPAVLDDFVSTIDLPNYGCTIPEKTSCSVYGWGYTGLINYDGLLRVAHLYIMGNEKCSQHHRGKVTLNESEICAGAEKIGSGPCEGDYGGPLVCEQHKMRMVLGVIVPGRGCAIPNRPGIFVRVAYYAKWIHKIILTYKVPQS

Row | Structure (SMILES) | Phase I metabolism in rat liver microsomes (Microsomal metabolism) | Stability t1/2 in blood (Blood stability studies) | Inhibition of HGF-dependent MDCK cell proliferation (MDCK cells [1]) | Inhibition of HGF-dependent Met phosphorylation (Met) | Inhibition of HGF-dependent MDCK cell scattering (MDCK cells [2]) | Inhibition of HGF dimerization (human HGF [3]) | Inhibition of HGF dimerization (human HGF [3]; listed as Tyr) | Ki (human HGF [4]) [pM] | Total recovery from serum ([5]; in vivo) | AUC(0-inf) ([5]; in vivo, iv, 24 mg/kg) [ng·h/mL] | C0 ([5]; in vivo, iv, 24 mg/kg) [µg/mL] | KE (rate of elimination) ([5]; in vivo, iv, 24 mg/kg) [min − 1] | Vd ([5]; in vivo, iv, 24 mg/kg) [L/kg] | clearance ([5]; in vivo, iv, 24 mg/kg) [mL/min/kg] | t1/2 (in vivo elimination half-life) ([5]; iv, 24 mg/kg) [h] | Stability t1/2 in blood [6] [min] | Inhibition of HGF dimerization (human HGF [3]; listed as Cys) | Inhibition of B16-F10 melanoma lung colonization [7] | Inhibition of B16-F10 melanoma lung colonization ([7]; listed as D-Nle-Cys-Ile-(6)-amino-hexanoic amide)
1 | CCCC[C@@H](N)C(=O)N[C@@H](Cc1ccc(O)cc1)C(=O)N[C@H](C(=O)NCCCCCC(N)=O)[C@@H](C)CC (H-[dNle]YI[Ahx]-NH2) | no detectable metabolism | 1.33 h and 1.333 h | marked inhibitory activity | able to block Met auto-phosphorylation | different from the HGF alone group but not different from the control group | completely block HGF dimer formation | statistically different than the HGF treated group | 243 | greater than 35% | 11500 | 68.2 ± 32.2 | 0.001 ± 0.0002 | 104 ± 65 | 58.3 ± 15.6 | 16.87 | – | – | – | –
2 | CCCC[C@H](N)C(=O)N[C@@H](Cc1ccc(O)cc1)C(=O)N[C@H](CN[C@@H](Cc1c[nH]cn1)C(=O)N1CCC[C@H]1C(=O)N[C@@H](Cc1ccccc1)C(=O)O)CC(C)C [Norleual, Nle-Tyr-Leu-Ψ-(CH2—NH2)^3-4-His-Pro-Phe] | – | – | – | – | – | – | – | – | – | – | – | – | – | – | – | 4.6 | – | – | –
3 | CCCC[C@@H](N)C(=O)N[C@@H](CS)C(=O)N[C@H](C(=O)NCCCCCC(N)=O)[C@@H](C)CC [D-Nle-Cys-Ile-NH—(CH2)5—CONH2] (H-[dNle]CI[Ahx]-NH2) | – | – | marked inhibitory activity | able to block Met auto-phosphorylation | different from the HGF alone group but not different from the control group | completely block HGF dimer formation | – | 133 | – | – | – | – | – | – | – | – | statistically different than the HGF treated group | suppressed pulmonary colonization; also recorded: radically prevented lung colonization | obvious reduction in melanoma colonies

Reference: patent US20140094413A1, “HEPATOCYTE GROWTH FACTOR (HGF) MIMICS AS THERAPEUTIC AGENTS” (WASHINGTON STATE UNIVERSITY, priority 2012, published 2014)
